Reference: patent US12377069B2, “Compounds, compositions, methods of using, and methods for preparing compounds” (UNIVERSITY OF LOUISVILLE RESEARCH FOUNDATION, INC., priority 2018, dated 2025)

Columns and labels:
Caco2 or HT29 cells = assay: In vitro FITC-dextran permeability assay; format: cell-based, human; settings: pretreatment 50 μM 24 h; LPS 50 ng/ml 2 h
Protocol: In vitro permeability study: For in vitro cellular permeability studies, Caco2 cells or HT29 cells (2×10^4 cells/cm^2) were seeded in 24-well Transwell® plates (Cornings; USA), on polyester membrane filters (pore size 0.4 μm, surface area 1.12 cm^2) (KOWAPRADIT et al. (2010) “In vitro permeability enhancement in intestinal epithelial cells (Caco-2) monolayer of water soluble quaternary ammonium chitosan derivatives” Aaps Pharmscitech, Vol. 11, pp. 497-508). Culture medium was added to both apical and basal chamber and the medium was changed every other day up to 21 days for Caco2 cells or 5-7 days for HT29 cells. For Caco2 cells, transepethelial electrical resistance (TEER) was calculated using EMD Millipore Millicell-ERS2 Volt-Ohm Meter (Millipore). Filters (with cell monolayer) showing more than 600 Ω·cm^2 were used for permeability study. After cells reach desired confluence (monolayered cells), cells were pre-treated with vehicle (0.01% DMSO) UroA (50 μM) and UAS03 […] for 24 hours. After treatment, monolayer was washed with PBS to remove any residual drug and 200 μL of LPS (50 ng/ml in HBSS) was added to each well and incubated for 2 hours. […] After 2 h, a sample from the basal chamber was withdrawn and FD4 concentration was determined using fluorescence 96-wells plate reader at excitation and emission wavelengths were 480 and 525 nm, respectively.

[1] = system: C57BL/6, Nrf2^−/− and AhR^−/− mice; assay: Colon protein/mRNA expression after 7 days of oral treatment; format: in vivo, mouse; settings: for AhR expression in colons of treated mice / Nrf2 and HO1 in the colons of wild type mice / expression of Cldn4 in the colons of mice: oral 20 mg/kg daily, 7 days; for Nrf2 and tight junction proteins (Cldn4, NQO1, Ocln, ZO1 and TJP3) in WT mice / Nrf2 and tight junction proteins in Nrf2^−/− and AhR^−/− mice: orally 20 mg/kg daily, seven days
Protocol: Immunoblots (Western blots): The total protein lysates were collected either from colon tissue/cells using radioimmunoprecipitation assay (RIPA) buffer (Sigma-Aldrich, USA) and quantified using BCA protein quantification kit (Thermo Scientific) as per instructional manual. Total protein (20-50 μg) of was resolved on NuPAGE™ 4-12% Bis-Tris gel (Novex Life technologies) and transferred to polyvinylidene difluoride membrane (0.22 μm pore; Millipore, USA). After blocking with 5% (w/v) skim milk powder (containing 1×TBS) for 1 h, the membrane was then incubated with respective antibodies at 4° C. overnight (dilutions of respective antibodies is given in Table A1). Next day, respective secondary antibody conjugated with Horseradish peroxidase were probed and the chemiluminescent substrate was used to detect the protein bands (ImageQuant LAS 4000). Densitometry analysis of bands were done using ImageJ software. Antibodies for Cldn4, Ocln, Cldn1, Cyp1A1, AhR, HO1, NQO1, Keap1, β-actin and Lamin B were purchased from Santa Cruz Biotechnologies (USA) and Nrf2 from Novus Biologicals (USA).
Tissue processing for RNA and protein analysis: Mice were treated with as described in results section. Mice were euthanized with CO2 asphyxiation followed by cervical dislocation. Colon was dissected out and luminal contents were flushed out with cold PBS (containing PMSF and Sodium orthvandate). Small portion of colon was snap frozen in liquid nitrogen and stored at −80° C. for RNA analysis. For preparation of protein samples, colon was opened longitudinally and mucosa was scraped in ice-cold 1×PBS using pre-chilled glass slide and centrifuged at 300×g for 10 min at 4° C. Supernatant was discarded and pellet was suspended in RIPA buffer (containing 1× protease inhibitor) and vortexed at high speed. After 30 min incubation on ice, samples were centrifuged at 13,000×g for 20 min at 4° C. Supernatant was collected and protein was quantified using BCA protein quantification kit. The lysates were used appropriately for Western blots.

AhR^−/− mice = assay: TNBS-induced colitis in AhR^−/− mice; format: in vivo, mouse; settings: 20 mg/kg every 12 h; for serum IL-6 in AhR^−/− mice / serum TNF-α in AhR^−/− mice / shortening of colon lengths in AhR^−/− mice: 60 h post TNBS
Protocol: FIG. 8: UroA/UAS03 exert beneficial activities through AhR-dependent pathways. (A-F) Colitis was induced using TNBS in C57BL/6 (WT) and AhR^−/− mice (n=4/group 7-8 week old age). Mice were treated with Veh or UroA/UAS03 (20 mg/kg bodyweight) every 12 h post TNBS administration and mice were euthanized at post 60 h TNBS administration. (A) TNBS-induced colitis experimental design and treatment regimen. (B) Percent body weight loss (No TNBS-Solid black line; Veh+TNBS− Solid red line; UroA+TNBS− Solid blue line; UAS03+TNBS− Solid purple line), (C) representative colon images, (D) colon lengths, (E) gut permeability, (F) serum levels of IL-6 and TNF-α were determined. Statistical analysis was performed (unpaired t-test) using Graphpad Prism software. Error bars, ±SEM ***p<0.001; **p<0.01 *p<0.05. (G) AhR-Nrf2 dependent tight junction protein regulation by UroA/UAS03. UroA/UAS03 (L:ligands) bind to AhR and activate its nuclear translocation to induce expression of Cyp1A1 and Nrf2. […] (H) LPS (50 ng/ml)-induced IL-6 levels were measured in the presence of Vehicle or UroA or UAS03 (0.1, 1, 10, 20, 30 and 50 μM) in bone marrow derived macrophages (BMDM) from wild type (WT), Nrf2^−/− and AhR^−/− mice. The data is representative of two independent experiments with triplicates. Statistical analysis was performed (unpaired t-test) using Graphpad Prism software. Error bars, ±SEM ***p<0.001; **p<0.01 *p<0.05.
2,4,6-Trinitrobenzenesulfonic acid (TNBS)-induced colitis: Male C57BL/6 or Nrf2^−/− mice (6-8 week old age mice) were anesthetized with ketamine/xylazine (100 mg/12.5 mg/kg IP) mixture and administered with single dose of TNBS (2.5 mg/mice; Sigma Aldrich, USA) in 50% ethanol. After administration of TNBS, mice were held upside down for 30-60 sec to ensure proper distribution of TNBS in the colon. Control group received 50% ethanol without TNBS. Mice with TNBS were randomly divided into three groups, viz. vehicle (0.25% sodium carboxymethylcellulose (CMC)), UroA and UAS03. UroA or UAS03 was resuspended in 0.25% sodium-CMC at desired concentrations. The mice were given orally Veh or UroA or UAS03 in 100 μl at desired concentrations (4 or 20 mg/kg/body weight). The treatment started after 12 hours of TNBS administration and every 12 hours thereafter up to 72 hours. The experiment was terminated post 60 h TNBS, where AhR^−/− mice were involved. In some experiments, we treated only once at post 12 h TNBS administration. TNBS administered and control mice were euthanized for tissue and plasma collection after 80 hours of TNBS/ethanol treatment. Mice were examined for colitis phenotype.

| Compound | LPS induced leakage of FITC-dextran into bottom chambers (Caco2 or HT29 cells) | AhR expression in colons of treated mice [1] | Nrf2 and HO1 in the colons of wild type mice [1] | expression of Cldn4 in the colons of mice [1] | Nrf2 and tight junction proteins (Cldn4, NQO1, Ocln, ZO1 and TJP3) in WT mice [1] | Nrf2 and tight junction proteins in Nrf2^−/− and AhR^−/− mice [1] | rapid body weight loss in AhR^−/− mice treated with TNBS (AhR^−/− mice) | serum IL-6 in AhR^−/− mice (AhR^−/− mice) | serum TNF-α in AhR^−/− mice (AhR^−/− mice) | shortening of colon lengths in AhR^−/− mice (AhR^−/− mice) |
| --- | --- | --- | --- | --- | --- | --- | --- | --- | --- | --- |
| Oc1ccc2c(c1)COc1cc(O)ccc1-2 [UAS03, 6H-benzo[c]chromene-3,8-diol] | inhibited LPS induced leakage | upregulated | upregulated | elevated expression | upregulated | did not appear to induce | some protective role | did not appear to reduce IL-6 | slightly reduced | did not appear to protect |
| O=c1oc2cc(O)ccc2c2ccc(O)cc12 [UroA, 3,8-dihydroxy-6H-dibenzo[b,d]pyran-6-one] | inhibited LPS induced leakage | upregulated | upregulated | elevated expression | upregulated | did not appear to induce |  | did not appear to reduce IL-6 | slightly reduced | did not appear to protect |
